The subject of assay [1] is Tumor cell lines (H292, HCT116, A375, HCC1569, A498, N87, UACC1093, and UACC647). Kind of assay: Single agent tumor cell viability (ATP luminescence, 72 hours). It is filed as cell-based. As to conditions: cell lines tested; 72 hours exposure; FIGS. 1A, 1B. How it is done: (§1) Tumor cell lines (H292, HCT116, A375, HCC1569, A498, N87, UACC1093, and UACC647) were cultured in RPMI 1640 supplemented with 5% fetal bovine serum and housed in a 5% CO2 Incubator at 37° C.
(§2) For single agent IC50 determination, cells were plated on a 96 well microplate and allowed 24 hours to adhere. Drugs were administered to the drug plate by the following: compound stock solutions (10 mM) were added to a drug plate where a 1:10 dilution was performed. Following the dilutions, 2 μl of test compound was transferred to the corresponding wells in the cell-containing 96-well plate with 198 μl of growth media. The compounds were tested over a range of 0.1 pM-100 μM for 72 hours. Following 72 hours of continuous exposure cell viability was determined by measuring the ATP activity using a commercially available cell viability assay kit. Luminescence intensity was used to relative drug activity compared to control wells and used to graphically determine the IC50.

Assay [2] has as its system PLX-4032 resistant melanoma cell lines UACC1093 and UACC647. Kind of assay: Combination interaction tumor cell viability (ATP luminescence, 72 hours). It is filed as cell-based. How it is done: as §1
as §2, with “combination interaction experiments,” for “single agent IC50 determination,”, “(20 mM) or combination agent stock solutions (20” for “(10”, “each VT-062 and standard agent” for “test compound”, “196” for “198”, “compound and combination agent was concurrently” for “compounds were”, “IC50 of combination.” for “IC50.”

The subject of assay [3] is A375 Human melanoma tumor cells. Kind of assay: Human tumor xenograft study. It is filed as in vivo. The conditions noted are these: A375 xenograft in female mice; orally, daily for 21 days; after 25 days. How it is done: Female mice were inoculated subcutaneously in the right flank with 0.1 ml of a 50% RPMI/50% Matrigel™ (BD Biosciences, Bedford, Mass.) mixture containing a suspension of A375 Human melanoma tumor cells (approximately 5×10^6 cells/mouse).
When tumor reached approximately 130 mg, mice were randomized into treatment groups. Body weights were recorded when the mice were randomized and were taken twice per week (on Study Days 3 and 7 for each cycle) thereafter in conjunction with tumor measurements. Treatment began on the day of randomization. Example 10 was delivered orally in a vehicle consisting of 5% DMA, 10% propylene glycol, 20% PEG 400, and 65% sterile water. Example 10 was administered daily for 21 days.
For orientation: A xenograft is tissue or cells of one species grown in another, often human tumour cells in immunodeficient mice.

The subject of the next assay is A375 melanoma cell line. Kind of assay: Cell viability (IC50) screen, CellTiter Glo, A375. It is filed as cell-based. The conditions noted are these: Homo sapiens, A-375; A375 cell viability, CellTiter Glo, 48 hours; read-out: IC50. How it is done:
(§3) U2OS cells were seeded at 500 cells per well in 5A McCoy's with 10% FBS in 96-well clear bottom, black-walled tissue culture plates. All melanoma cell lines (A375, UACC-91, UACC-257, UACC-502, UACC-903, UACC-1308, UACC-1940, UACC-2534, and UACC-3291) were seeded at 5,000 cells per well in RPMI 1640 with 10% FBS in 96-well clear bottom, black-walled tissue culture plates. After 24 hour incubation, cells were treated with VATG compounds in triplicate with a 10-point half log dose response from […] for 24 and 48 hours. Medium was removed and 2× CellTiter Glo (Promega, G7571) reagent mixed 1:1 with Opti-MEM (Invitrogen, 31985062) was added at 100 μL per well and incubated at room temperature for 15 minutes while rocking. 75 μL per well was moved to a white-walled 96-well plate and luminescence quantified using the 96 LUM program on an EnVision plate reader (PerkinElmer) and exported for analysis. All triplicate data points were averaged and luminescent readings for each treatment were normalized to vehicle control for change in viability. Dose response curves were input into SigmaPlot for IC50 calculations (Systat Software Inc).
(Cellular ATP, detected with luciferase, serves as a proxy for viable cell number.)

Assay [4] relates to UACC-91 melanoma cell line. Kind of assay: Cell viability (IC50) screen, CellTiter Glo, UACC-91. Format: cell-based. As to conditions: Homo sapiens; UACC-91 cell viability, CellTiter Glo; read-out: IC50. How it is done: as §3
Assay [5] relates to UACC-257 melanoma cell line. Kind of assay: Cell viability (IC50) screen, CellTiter Glo, UACC-257. As to conditions: Homo sapiens; UACC-257 cell viability, CellTiter Glo; read-out: IC50. Format: cell-based. The procedure: as §3
The subject of assay [6] is UACC-502 melanoma cell line. Kind of assay: Cell viability (IC50) screen, CellTiter Glo, UACC-502. Format: cell-based. As to conditions: Homo sapiens; UACC-502 cell viability, CellTiter Glo; read-out: IC50. The procedure:
as §3

For assay [7], the system named is UACC-903 melanoma cell line. Kind of assay: Cell viability (IC50) screen, CellTiter Glo, UACC-903. Format: cell-based. The conditions noted are these: Homo sapiens; UACC-903 cell viability, CellTiter Glo; read-out: IC50. How it is done: as §3
In assay [8] the test system is UACC-1308 melanoma cell line. Kind of assay: Cell viability (IC50) screen, CellTiter Glo, UACC-1308. It is filed as cell-based. The conditions noted are these: Homo sapiens; UACC-1308 cell viability, CellTiter Glo; read-out: IC50. The procedure:
as §3

Assay [9] deals with UACC-1940 melanoma cell line. Kind of assay: Cell viability (IC50) screen, CellTiter Glo, UACC-1940. Format: cell-based. The conditions noted are these: Homo sapiens; UACC-1940 cell viability, CellTiter Glo; read-out: IC50. The procedure:
as §3

Assay [10] has as its system UACC-2534 melanoma cell line. Kind of assay: Cell viability (IC50) screen, CellTiter Glo, UACC-2534. Format: cell-based. The conditions noted are these: Homo sapiens; UACC-2534 cell viability, CellTiter Glo; read-out: IC50. The procedure: as §3
The subject of assay [11] is UACC-3291 melanoma cell line. Kind of assay: Cell viability (IC50) screen, CellTiter Glo, UACC-3291. As to conditions: Homo sapiens; UACC-3291 cell viability, CellTiter Glo; read-out: IC50. Format: cell-based. The procedure:
as §3

Assay [12] relates to phospho-ERK1/2 and LC3-II in A375 cells. Kind of assay: Western blot of A375 cells treated with PLX-4032 with and without autophagy inhibitors. Format: cell-based, human. How it is done: For Western blotting, U2OS cells were seeded in 10 cm plates in 5A McCoy's with 10% FBS at 1×10^6 cells per plate. All melanoma lines were seeded in 10 cm plates in RPMI 1640 with 10% FBS at 1×10^6 cells per plate. After 24 hours, cells were treated with CQ, QN, Example 27, or Example 7 in a dose response of 0.3 μM, 1 μM, 3 μM, 10 μM, and 30 μM for three hours. A375 were treated with PLX-4032 (Selleck Chemicals, S1267) at 10 nM, 100 nM, and 1 μM for three hours with and without CQ, QN, Example 7, and Example 27 at 3 μM and 30 μM. After treatment, cells were lysed [10 mM KPO4, 1 mM EDTA, 10 mM MgCl2, 5 mM EGTA, 50 mM bis-glycerophosphate, 0.5% NP40, 0.1% Brij35, 0.1% sodium deoxycholate, 1 mM NaVO4, 5 mM NaF, 2 mM DTT, and complete protease inhibitors (Sigma, P8340-5 mL)] and 50 μg of protein was resolved by SDS-PAGE. Proteins were transferred to PVDF membranes and probed with primary antibodies [LC3 (Sigma, L7543-200UL), anti-α-tubulin (Sigma, T6199), cathepsin B (Santa Cruz, sc-13985)] for 16 hours at 4° C. followed by a secondary antibody [HRP-linked rabbit or mouse IgG (GE Healthcare, NA934 or NA931) or Odyssey IRDye 680CW Goat anti-rabbit IgG (LI-COR, 926-32221) or IRDye 800CW Goat anti-mouse IgG (LI-COR, 926-32210)] for 1 hour at room temperature. Proteins were detected with enhanced chemiluminescence or using the Odyssey machine and quantified (FIGS. 12, 15, 16, 7 and 11).
Since the melanoma cell lines are capable of undergoing autophagy and sensitive to autophagy inhibition, the inventors questioned whether autophagy inhibitors could improve the efficacy of, or sensitize melanoma cells against cytotoxic and chemotherapeutic drugs for advanced metastatic melanoma. In one example, PLX-4032 drug “vemurafenib” (marketed as ZELBORAF®) is a B-Raf enzyme inhibitor developed by Plexxikon and Genentech for the treatment of late-stage melanoma. The name “vemurafenib” comes from V600E mutated BRAF inhibition. PLX-4032, selectively targets the V600E mutant BRAF and it is unknown how this drug may affect autophagic flux. To determine the effects of the drug on autophagic flux, the present inventors performed experiments to determine whether PLX-4032 induces autophagy, as has been observed with other targeted agents. In some embodiments, the accumulation of LC3-II in response to lysosome inhibition was measured by quantitative Western blotting, as described above. A375 cells were treated with PLX-4032 (10 nM, 100 nM, and 1 μM) for three hours in the presence or absence of CQ.

Another assay has as its system A375 cells. Format: cell-based, human. The conditions noted are these: A375 soft agar. From the text: After three weeks of treatment, cells were fixed and stained in 1% paraformaldehyde in 1×PBS containing 0.005% crystal violet overnight. Cells were destained with multiple washes of 1×PBS to remove background staining. Plates were scanned and images quantified using Nikon NIS Elements software. To quantify, each image was sharpened and an ROI of equal size drawn around each well. Intensity thresholds were set to include all pixels equal to or greater than the intensity of the mean background fluorescence. Objects within the threshold of each ROI were quantified using an automated object count function and exported for analysis. Object number was quantified to denote total colony formation. […] Additivity was established when the expected viability determined by the Bliss independence model was equal to the actual viability. This model was chosen since the effects of both compounds are mutually non-exclusive and follow first order Michaelis-Menten kinetics.
To determine if the effects of each combination were more than, less than, or equal to additive, predictions for additivity were made using the Bliss Independence (Table 7), as disclosed in Yan H, Zhang B, Li S, Zhao Q. A formal model for analyzing drug combination effects and its application in TNF-alpha-induced NFkappaB pathway. BMC Syst. […] Drug combination studies and their synergy quantification using the Chou-Talalay method.

For assay [13], the system named is metastatic melanoma with BRAF V600E mutation. As to conditions: metastatic melanoma patients with the mutation; in one study; cited from earlier work.
Another assay has as its system L6 cells. Kind of assay: In vitro cytotoxicity (LD50), Alamar Blue. It is filed as cell-based. The conditions noted are these: Rattus norvegicus, L6, read-out: L6 IC50. How it is done: L6 cells were seeded at 4×10^4 cells per well in a 96-well microtiter plate with each well containing 100 μL of RPMI 1640 medium, supplemented with 1% L-glutamine (200 mM), and 10% fetal bovine serum. Serial drug dilutions of Example 7 and Example 27 with seven 3-fold dilution steps, covering a range from 90 to 0.12 μg/mL, were prepared. After 72 h of incubation, the plates were inspected under an inverted microscope to ensure growth of the controls and sterile conditions. Alamar Blue (10 μL, 12.5 mg of resazurin dissolved in 100 mL of double-distilled water) was then added to each well, and the plates were incubated for another 2 hours. Plates were read with a microplate fluorometer using an excitation wavelength of 536 nm and an emission wavelength of 588 nm. Data were analyzed using microplate reader software. Podophyllotoxin was used as a standard (L6 IC50=0.04 μg/mL).
Next, the inventors wanted to determine if there is a therapeutic window for Example 7 and Example 27 in the treatment of P. falciparum. A therapeutic window for P. falciparum treatment is defined as a 10-fold differential between the in vitro cytotoxicity (LD50) within a mammalian cell line and the antimalarial IC50 (LD50/IC50) as defined by the MMV. Using the rat skeletal muscle L6 mammalian cell line, dose-response curves for Example 7 and Example 27 were performed and the LD50 determined.
Background: Resazurin is reduced to fluorescent resorufin, in cell work by metabolically active cells.

In brackets after ≈: the same amount, converted by molar mass.

Regarding `COc1ccc2nc3cc(Cl)ccc3c(NCCCCN(C)CC3CC3)c2c1` [Example 10, N^1-(6-Chloro-2-methoxyacridin-9-yl)-N^4-(cyclopropylmethyl)-N^4-methylbutane-1,4-diamine], the “tumor cell growth inhibition” value in assay [1] is on record as “more than 75%”. The “increase in tumor growth inhibition in combination than Example 10 alone” value was 2.6-3.25% in assay [2] (in combination with PLX-4032, FIGS. 4A, 4C) and 7-30% in [2] (in combination with Temozolomide, FIGS. 4B, 4D). Moreover, the tumor growth inhibition entry in assay [3] is on record as “greater than 50%”.

In the case of `CCCS(=O)(=O)Nc1ccc(F)c(C(=O)c2c[nH]c3ncc(-c4ccc(Cl)cc4)cc23)c1F` [PLX-4032, N-[3-[5-(4-chlorophenyl)-1H-pyrrolo[2,3-b]pyridine-3-carbonyl]-2,4-difluorophenyl]propane-1-sulfonamide, reference compound], the IC50 (as a rule, the concentration needed to halve the response being measured) in the assay with A375 melanoma cell line stood at 1 µM; in [4], 0.6 µM; in assay [5] it was 4 µM; in assay [6] it was 4.2 µM; in [7], 69 µM; in assay [8] it was 0.6 µM. Besides, the half-inhibitory concentration (IC50) in assay [9] is 3.3 µM; in assay [10], 19.3 µM; in assay [11], 1.5 µM. Further, in assay [12] (10 nM, 100 nM, 1 μM for three hours), the “phosphorylation of ERK1/2 (oncogenic BRAF signaling)” value is “reduced phosphorylation”. Also, in assay [12] (three hours, in the presence or absence of lysosome inhibitors), the “autophagy / basal autophagic flux (LC3-II)” value is “not significantly altered”. In addition, in the assay with A375 cells (single compound at IC10), the “Relative Growth Inhibition Compound B” value was found to be 0.19. For the same compound, the IC10 concentration in the assay with A375 cells (treated every other day for three weeks, single agent) is 0.0013 µM. Moreover, in assay [13], the response rate is 70%.

For the compound `COc1cc([C@@H]2c3cc4c(cc3[C@H](O)[C@H]3COC(=O)[C@H]23)OCO4)cc(OC)c1OC` [Podophyllotoxin], in the assay with L6 cells, the IC50 turned out to be 0.04 µg/mL (≈ 0.0965 µM).

The values are drawn from patent publication US20170000784A1, “Autophagy Inhibitors” (priority 2013, published 2017).
